Laboratory results: patent US20030040479A1, “Rotational intrathecal analgesia method and device” (Omeros Corporation, priority 2001, published 2003)

Legend:
Format in all cases: in vivo
male Sprague-Dawley rats [1] = experiment: Development of tolerance to intrathecal analgesia in rat HWL tests (thermal and mechanical); details: intrathecal every 12 hrs
Experimental: A polyethylene catheter (Intramedic PE 10) was permanently implanted intrathecally with the inner tip at L3 to L5 in each animal. Rats displaying movement disorders following placement of the catheter were not used in the study. Injection volume was 10 μL of drug solution followed by 10 μL of 0.9% saline to flush the catheter. Intrathecal injections were performed every 12 hrs (morning and night).
In the morphine only group, 8 μg morphine HCl was injected every 12 hrs until complete tolerance developed and in the nociceptin only group, 10 nmol nociceptin was injected every 12 hrs until complete tolerance developed. These doses were chosen from previous studies that determined an equianalgesic dosing for these two drugs. […]
Solutions for intrathecal injection were prepared with sterilized saline (0.9%). […] The hindpaw withdrawal latency (HWL) was measured for both thermal and mechanical stimulation. […] A wedge shaped probe with a loading rate of 30 g/second was applied to the dorsal surface of the manually handled hindpaw and the mechanical stimulation required to initiate the struggle response was assessed. […] The HWLs were measured 15 min after the second intrathecal injection on a daily basis. […]

male Sprague-Dawley rats [2] = experiment: Rat hindpaw withdrawal latency (HWL) to mechanical stimulation, Randall Selitto Test; details: for % Changes of HWL to Mechanical Stimulation: 10 minutes after intrathecal injection
male Sprague-Dawley rats [3] = experiment: Rat hindpaw withdrawal latency (HWL) to thermal stimulation, hot-plate test; details: for % Changes of HWL to Thermal Stimulation: 10 minutes after intrathecal injection
[4] = day 1, drug alone, intrathecal, text summary of both hindpaws

## CN1CC[C@]23c4c5ccc(O)c4O[C@H]2[C@@H](O)C=C[C@H]3[C@H]1C5 [Morphine, morphine]
Male Sprague-Dawley rats [1]
  day by which complete (total) tolerance exists: 6 days
Male Sprague-Dawley rats [2]; [4]
  HWL increase using mechanical stimulation: ~55%
Male Sprague-Dawley rats [2]; day 1, left hindpaw
  % Changes of HWL to Mechanical Stimulation: 53.99 ± 2.96%
Male Sprague-Dawley rats [2]; day 1, right hindpaw
  % Changes of HWL to Mechanical Stimulation: 56.04 ± 3.38%
Male Sprague-Dawley rats [2]; day 2, left hindpaw
  % Changes of HWL to Mechanical Stimulation: 47.69 ± 2.54%
Male Sprague-Dawley rats [2]; day 2, right hindpaw
  % Changes of HWL to Mechanical Stimulation: 46.74 ± 2.52%
Male Sprague-Dawley rats [2]; day 3, left hindpaw
  % Changes of HWL to Mechanical Stimulation: 33.85 ± 1.60%
Male Sprague-Dawley rats [2]; day 3, right hindpaw
  % Changes of HWL to Mechanical Stimulation: 33.44 ± 1.03%
Male Sprague-Dawley rats [2]; day 4, left hindpaw
  % Changes of HWL to Mechanical Stimulation: 31.37 ± 2.02%
Male Sprague-Dawley rats [2]; day 4, right hindpaw
  % Changes of HWL to Mechanical Stimulation: 28.84 ± 2.73%
Male Sprague-Dawley rats [2]; day 5, left hindpaw
  % Changes of HWL to Mechanical Stimulation: 15.30 ± 1.39%
Male Sprague-Dawley rats [2]; day 5, right hindpaw
  % Changes of HWL to Mechanical Stimulation: 16.54 ± 1.26%
Male Sprague-Dawley rats [2]; day 6, left hindpaw
  % Changes of HWL to Mechanical Stimulation: 3.26 ± 1.86%
Male Sprague-Dawley rats [2]; day 6, right hindpaw
  % Changes of HWL to Mechanical Stimulation: 2.72 ± 1.94%
Male Sprague-Dawley rats [3]; [4]
  HWL increase using thermal stimulation: approximately 67%
Male Sprague-Dawley rats [3]; day 1, left hindpaw
  % Changes of HWL to Thermal Stimulation: 66.26 ± 2.20%
Male Sprague-Dawley rats [3]; day 1, right hindpaw
  % Changes of HWL to Thermal Stimulation: 66.66 ± 1.51%
Male Sprague-Dawley rats [3]; day 2, left hindpaw
  % Changes of HWL to Thermal Stimulation: 61.25 ± 3.05%
Male Sprague-Dawley rats [3]; day 2, right hindpaw
  % Changes of HWL to Thermal Stimulation: 63.11 ± 0.64%
Male Sprague-Dawley rats [3]; day 3, left hindpaw
  % Changes of HWL to Thermal Stimulation: 51.66 ± 1.73%
Male Sprague-Dawley rats [3]; day 3, right hindpaw
  % Changes of HWL to Thermal Stimulation: 48.74 ± 2.40%
Male Sprague-Dawley rats [3]; day 4, left hindpaw
  % Changes of HWL to Thermal Stimulation: 43.63 ± 1.38%
Male Sprague-Dawley rats [3]; day 4, right hindpaw
  % Changes of HWL to Thermal Stimulation: 42.45 ± 1.70%
Male Sprague-Dawley rats [3]; day 5, left hindpaw
  % Changes of HWL to Thermal Stimulation: 23.85 ± 1.03%
Male Sprague-Dawley rats [3]; day 5, right hindpaw
  % Changes of HWL to Thermal Stimulation: 25.07 ± 2.07%
Male Sprague-Dawley rats [3]; day 6, left hindpaw
  % Changes of HWL to Thermal Stimulation: −1.30 ± 2.36%
Male Sprague-Dawley rats [3]; day 6, right hindpaw
  % Changes of HWL to Thermal Stimulation: 0.51 ± 1.61%
